Test results as given in patent publication EP0181109B1, “N6-benzopyrano- and benzothiopyrano-adenosines” (WARNER-LAMBERT COMPANY, priority 1984, dated 1986).

Tests used:
[1] = biological target: T1, adenosine A1 receptor (Rattus norvegicus, UniProt P25099); assay: Adenosine Receptor Binding - A1 Receptor Affinity (RBA 1), [3H]-CHA displacement; conditions: rat whole brain membranes, 1.0 nM [3H]-CHA, one hour at 25°C
T1 construct: Whole brain minus cerebellum and brainstem from male Long Evans rats (150-200 g) was homogenized; from tissue; host or cells: rat whole brain minus cerebellum and brainstem (membrane homogenate)
T1 sequence (P25099 1-326): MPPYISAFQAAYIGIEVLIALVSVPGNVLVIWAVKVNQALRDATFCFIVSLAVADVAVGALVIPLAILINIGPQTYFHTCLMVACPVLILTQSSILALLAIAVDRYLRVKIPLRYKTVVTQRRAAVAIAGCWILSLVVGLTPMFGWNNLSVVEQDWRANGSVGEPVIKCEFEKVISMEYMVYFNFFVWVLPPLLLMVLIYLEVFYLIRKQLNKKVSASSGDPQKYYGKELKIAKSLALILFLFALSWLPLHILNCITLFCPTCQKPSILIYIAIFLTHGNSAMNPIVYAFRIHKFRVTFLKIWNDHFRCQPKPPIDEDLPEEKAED
Protocol: Whole brain minus cerebellum and brainstem from male Long Evans rats (150-200 g) was homogenized in 30 volumes of ice-cold 0.05 M Tris-HCI buffer pH 7.7 using a Brinkman Polytron PT-10, (setting number 6 for 20 seconds) and centrifuged for ten minutes at 20,000 x g (Sorvall RC-2), 4°C. The supernatant was discarded, and the pellet was resuspended and centrifuged as before. The pellet was resuspended in 20 ml Tris-HCI buffer containing two International Units/ml of adenosine deaminase (Sigma Type III from calf intestinal mucosa), incubated at 37°C for 30 minutes, then subsequently at 0°C for ten minutes. The homogenate was again centrifuged, and the final pellet was resuspended in ice-cold 0.05 M Tris-HCI buffer pH 7.7 to a concentration of 20 mg/ml original wet tissue weight and used immediately.
Tissue homogenate (10 mg/ml) was incubated in 0.05 M Tris-HCI buffer pH 7.7 containing 1.0 nM [^3H]-N^6-cyclohexyladenosine (^3H]-CHA) with or without test agents in triplicate for one hour at 25°C. Incubation volume was 2 ml. Unbound [^3H]-CHA was separated by rapid filtration under reduced pressure through Whatman glass fiber (GF/B) filters. The filters were rinsed three times with 5 ml of ice cold 0.05 M Tris-HCI buffer pH 7.7. The radio-labele ligand retained on the filter was measured by liquid scintillation spectrophotometry after shaking the filters for one hour or longer on a mechanical shaker in 10 ml of Beckman Ready-Solv HP scintillation cocktail.
Nonspecific binding was defined as the binding which occurred in the presence of 1 mM theophylline. The concentration of test agent which inhibited 50% of the specific binding (IC50) was determined by nonlinear computer curve fit. The Scatchard plot was calculated by linear regression of the line obtained by plotting the amount of radioligand bound (pmoles/gram of tissue) versus
• bound radioligand • free radioligand Since the amount of radioligand bound was a small fraction of the total amount added, free radioligand was defined as the concentration (nM) of radioligand added to the incubation mixture. The Hill coefficient was calculated by linear regression of the line obtained by plotting the log of the bound radioligand vs the log of the • bound radioligand • Bmax - bound radioligand • The maximal number of binding sites (Bmax) was calculated from the Scatchard plot.

[2] = system: Carrageenan pleurisy; assay: Carrageenan Pleurisy Assay; format: in vivo; conditions: IP route, rat
Protocol: Assessment of another activity is provided by the carrageenan pleurisy assay. This assay indicates antiinflammatory activity. Carrageenan pleurisy is induced as previously described by Carter, G. W., et al., in J. Pharm. Pharmacol 34:66-67, 1982. Carrageenan ([…]) is injected intrapleurally in a 0.25 ml volume of pyrogen-free saline. Four hours later, the rats are sacrificed and 2 ml of a phenol red solution (325 mg phenol red in 1 liter of 0.05 M phosphate buffered saline) are added to each pleural cavity. The contents of the cavities are mixed and transferred to glass test tubes. A 50 pl aliquot is removed from each tube and exudate cells are counted after red blood cells lysis (with Zapoglobin; Coulter Electronics, Hialeah FL) using a Coulter model ZBI counter. The remaining exudate-phenol red mixture is centrifuged at […] for 15 minutes. One hundred pl of the supernatent fluid is diluted with 3.9 ml of phosphate buffer (0.072 M of tribasic sodium phosphate Na3PO4·12H2O, in water) and the absorbance is measured at 650 nm.
Exudate volume is calculated as follows: [formula] where V1 = unknown volume of exudate, V2 = volume of dye added to cavity (2 ml), A1 = absorbance of exudate (assumed to be zero), A2 = absorbance of the phenol red solution, A3 = absorbance of exudate and phenol red solution.
Inhibition of exudate or formation is calculated by the following equations: • % inhibition (exudate) = [formula] • % inhibition (cell count) = [formula] ID50 values are calculated by Probit analysis.
The compound of Example 1 was adminstered one hour prior to carrageenan injection.

SMILES: COc1ccc2c(c1)CC(Nc1ncnc3c1ncn3[C@@H]1O[C@H](CO)[C@@H](O)[C@H]1O)CO2 (stereo partly shown) [Example 6]
- IC50 [1]: 4.9 nM
- % Inhibition Exudate ([2]; 1 mg/kg): 50.9%
- % Inhibition WBC ([2]; 1 mg/kg): 49.8%
- % Inhibition Exudate ([2]; 3 mg/kg): 42.2%
- % Inhibition WBC ([2]; 3 mg/kg): 37.5%

SMILES: OC[C@H]1O[C@@H](n2cnc3c(NC4CCSc5ccccc54)ncnc32)[C@H](O)[C@@H]1O (stereo partly shown) [Example 15]
- IC50 [1]: 56.2 nM
- % Inhibition Exudate ([2]; 1 mg/kg): 13.5%
- % Inhibition WBC ([2]; 1 mg/kg): -10.7%
- % Inhibition Exudate ([2]; 10 mg/kg): 63.9%
- % Inhibition WBC ([2]; 10 mg/kg): -16.9%

SMILES: Cc1cc2c(cc1C)OCC(Nc1ncnc3c1ncn3[C@@H]1O[C@H](CO)[C@@H](O)[C@H]1O)C2 (stereo partly shown) [Example 9, N^6-[6,7-Dimethyl-3-chromanylamino]adenosine]
- IC50 [1]: 8.1 nM
- % Inhibition Exudate ([2]; 3 mg/kg): 12.5%
- % Inhibition WBC ([2]; 3 mg/kg): 13.0%
- % Inhibition Exudate ([2]; 30 mg/kg): 31.9%
- % Inhibition WBC ([2]; 30 mg/kg): 30.6%

SMILES: OC[C@H]1O[C@@H](n2cnc3c(NC4COc5c(Cl)cccc5C4)ncnc32)[C@H](O)[C@@H]1O (stereo partly shown) [Example 5]
- IC50 [1]: 17 nM
- % Inhibition Exudate ([2]; 3 mg/kg): 22.7%
- % Inhibition WBC ([2]; 3 mg/kg): 27.2%
- % Inhibition Exudate ([2]; 10 mg/kg): 40.2%
- % Inhibition WBC ([2]; 10 mg/kg): 68.0%

SMILES: OC[C@H]1O[C@@H](n2cnc3c(NC4CCOc5ccccc54)ncnc32)[C@H](O)[C@@H]1O (stereo partly shown) [Example 1]
- IC50 [1]: 88 nM

SMILES: COc1cc(OC)c2c(c1)OC(C)(C)CC2Nc1ncnc2c1ncn2[C@@H]1O[C@H](CO)[C@@H](O)[C@H]1O (stereo partly shown) [Example 14]
- IC50 [1]: 4930 nM

SMILES: CC1Oc2ccccc2CC1Nc1ncnc2c1ncn2C1OC(CO)C(O)C1O (stereo not drawn) [Example 7, N^6-[cis-2-Methyl-3-chromanylamino]adenosine]
- IC50 [1]: 7.8 nM

SMILES: OC[C@H]1O[C@@H](n2cnc3c(NC4COc5ccccc5C4)ncnc32)[C@H](O)[C@@H]1O (stereo partly shown) [Example 4, N^6-[3-Chromanylamino]adenosine]
- IC50 [1]: 20 nM

SMILES: C[C@H]1Oc2ccccc2C[C@@H]1Nc1ncnc2c1ncn2[C@@H]1O[C@H](CO)[C@@H](O)[C@H]1O (relative stereo) [Example 8, N^l-[trans-2-Methyl,-3-chromanylamino]adenosine]
- IC50 [1]: 45 nM

SMILES: Cc1ccc2c(c1C)OC(C)C(Nc1ncnc3c1ncn3[C@@H]1O[C@H](CO)[C@@H](O)[C@H]1O)C2 (stereo partly shown) [Example 11]
- IC50 [1]: 32 nM

SMILES: COc1ccc2c(c1)OCC(Nc1ncnc3c1ncn3[C@@H]1O[C@H](CO)[C@@H](O)[C@H]1O)C2 (stereo partly shown) [Example 3]
- IC50 [1]: 14.2 nM

SMILES: OC[C@H]1O[C@@H](n2cnc3c(NC4CSc5ccccc5C4)ncnc32)[C@H](O)[C@@H]1O (stereo partly shown) [Example 2]
- IC50 [1]: 6.33 nM

SMILES: Cc1ccc2c(c1C)OCC(Nc1ncnc3c1ncn3[C@@H]1O[C@H](CO)[C@@H](O)[C@H]1O)C2 (stereo partly shown) [Example 10, N^6-[7,8-Dimethyl-3-chromanylamino]adenosine]
- IC50 [1]: 27 nM

SMILES: O=S1(=O)CCC(Nc2ncnc3c2ncn3[C@@H]2O[C@H](CO)[C@@H](O)[C@H]2O)c2ccccc21 (stereo partly shown) [Example 16, N^6-[4-Benzothiopyran-1,1-dioxideamino]adenosine]
- IC50 [1]: 622 nM

SMILES: CC(C)(C)c1ccc2c(c1)OCC(Nc1ncnc3c1ncn3[C@@H]1O[C@H](CO)[C@@H](O)[C@H]1O)C2 (stereo partly shown) [Example 13, N^6-[7-t-Butyl-3-chromanylamino)adenosine]
- IC50 [1]: 160 nM
